This is an account of results in patent publication US20050182084A1, “Method for treating erectile dysfunction” (FUJISAWA PHARMACEUTICAL CO., LTD., priority 2004, published 2005).

The subject of this experiment is rat cavernous nerve injury model. Kind of experiment: recovery of erectile function in rat cavernous nerve injury model (intracavernous pressure). The format is in vivo. The protocol: Effect of the compound (Ia) on erectile dysfunction was confirmed by a rat cavernous nerve injury model.
• (1) The recovery of erectile function after cavernous nerve injury was basically assessed in a similar manner to that of BJU International 92, 470-475 (2003). • (2) The compound (Ia), in a form of the solution which was prepared in a similar manner to that of Example 1 mentioned above, or its placebo was given to rats, from 1 day after surgery to 1 day before harvesting for 8 weeks, subcutaneously after being diluted with a suitable amount of HCO-60/EtOH in physiological saline.

For `CO[C@H]1C[C@@H](C)C/C(C)=C/[C@@H](CC(C)=O)C(=O)C[C@H](O)[C@@H](C)[C@@H](/C(C)=C/[C@@H]2CC[C@@H](O)[C@H](OC)C2)OC(=O)[C@@H]2CCCCN2C(=O)C(=O)[C@]2(O)O[C@H]1[C@@H](OC)C[C@H]2C` [Compound (Ia)], for the setting “rat cavernous nerve injury model, conclusion from Table 1”, the “effect on intracavernous pressure (in words)” value was “remarkable recovery effect on intracavernous pressure”. In addition, where the note is “rat, cavernous nerve injury, 1 mg/kg subcutaneously, from 1 day after surgery for 8 weeks, n = 7, **P < 0.01 v.s. vehicle-treated (Dunnett's post-test)”, the “Peak intracavernous pressure(cm H2O) mean ± S.E.” value is reported as 97.4 ± 8.0** cm H2O.
